Measurements reported in US12497460B2, “Anti-MSR1 antibodies and methods of use thereof” (REGENERON PHARMACEUTICALS, INC., priority 2018, dated 2025).

How the values were obtained:
[1] = tested on: LXR (THP1/LXR-Luc cells); assay: Cell based LXR responsive luciferase reporter assay (Examples 34A, 34C); settings: Homo sapiens, payload compounds, differentiated THP-1/LXR-Luc cells (Table 30); for maximal fold induction: read-out: S/N
Experimental: The activity of certain LXR agonist payloads described herein were assessed in a cell based LXR responsive luciferase reporter assay. To generate the assay cell line, an LXR regulated luciferase reporter gene (Cignal Lenti LXR Reporter (luc) kit (Qiagen, Cat #CLS-001L)) was transduced into THP1 cells and the cells were selected for two weeks in puromycin. The lentivirus expresses the firefly luciferase gene under the control of a minimal CMV promoter and tandem repeats of the LXR transcriptional response element. The resulting cell line is referred to as THP1/LXR-Luc cells. For the assay, THP1/LXR-Luc cells were seeded onto 96 well plates at 40,000 cells/well in media containing RPMI supplemented with 10% FBS and penicillin/streptomycin and were then differentiated with 200 nM Phorbol Myristate Acetate (PMA) for 3 days. The media was subsequently removed and replaced with 80 uL of fresh media without PMA. Three-fold serial dilutions of free payloads were prepared in 100% DMSO, transferred to fresh media, and 20 uL were added to the cells at a final constant DMSO concentration of 0.2% and free payloads at final concentrations ranging from 100 nM to 0.015 nM. The last well in the plate served as blank control containing only the media and 0.2% DMSO (untreated well) and was plotted as a continuation of the 3-fold serial dilution. Forty-eight hours later, luciferase activity was determined after the addition of One-Glo™ reagent (Promega, Cat #E6130) to each well. Relative light units (RLUs) were measured on a Victor luminometer (PerkinElmer) and EC50 values were determined using a four-parameter logistic equation over a 10-point dose response curve (GraphPad Prism). The signal to noise (S/N) was determined by taking the ratio of the highest RLU on the dose response curve to the RLU in the untreated wells.
Several linker-payloads (LPs) were derived from the payload compounds in Table C and conjugated to an anti-MSR1 antibody (H1H21234N-N297Q) or a non-binding control using the techniques described in the previous example. The resulting anti-MSR1 LXR agonist antibody drug conjugates (ADCs) were tested for activity in the THP1/LXRLuc reporter assay as described above for the payload compounds.

[2] = tested on: S. aureus MRSA strain NRS384 in humanized MSR1 mice; assay: S. aureus IV disseminated infection mouse model, kidney burden; format: in vivo
Experimental: To test the efficacy of an anti-MSR1 Ab-antibiotic ncADC of the invention in vivo, an intravenous disseminated infection model was utilized. S. aureus MSRA strain NRS384 was grown overnight in trypic soy broth (TSB) and sub-cultured to mid-logarithmic phase. Bacteria were then washed twice with PBS and resuspended in PBS at a concentration of 1.2×10^8 cfu/mL. […] From one to three days post infection, mice were treated with 110 mg/kg vancomycin subcutaneously twice daily where indicated. […] Mice were monitored for weight loss and body conditioning score throughout the infection. At four days post infection, mice were euthanized and the S. aureus kidney burden was quantified by tissue homogenization followed by enumeration of colony forming units through serial dilution in PBS and plating onto trypicase soy agar plates.

[3] = vancomycin treatment alone, limit of detection 250 cfu

Question: With `C[C@]1(C(=O)NC(=O)[C@@]2(C)CCC[C@]3(C)c4cc(O)ccc4CC[C@@H]23)CCC[C@]2(C)c3cc(N)ccc3CC[C@@H]12` [P1, (1S,4aS,10aR)-N-[(1S,4aS,10aR)-6-Amino-1,4a-dimethyl-1,2,3,4,4a,9,10,10a-octahydrophenanthrene-1-carbonyl]-6-hydroxy-1,4a-dimethyl-1,2,3,4,4a,9,10,10a-octahydrophenanthrene-1-carboxamide] as the compound, how does the EC50 [1] read?
Answer: Its EC50 is 1.14 nM.

Question: And the maximal fold induction [1]?
Answer: The maximal fold induction was 11.4.

Question: What does the source list for `C[C@]1(C(=O)NC(=O)[C@@]2(C)CCC[C@]3(C)c4cc(N)ccc4CC[C@@H]23)CCC[C@]2(C)c3cc(N)ccc3CC[C@@H]12` [P2B, (1S,4aS,10aR)-6-Amino-N-((1S,4aS,10aR)-6-amino-1,4a-dimethyl-1,2,3,4,4a,9,10,10a-octahydrophenanthrene-1-carbonyl)-1,4a-dimethyl-1,2,3,4,4a,9,10,10a-octahydrophenanthrene-1-carboxamide]?
Answer: EC50 [1]: 0.292 nM; maximal fold induction [1]: 11.3

Question: `C[C@]1(C(=O)NC(=O)[C@@]2(C)CCC[C@]3(C)c4cc(NC(=O)CN)ccc4CC[C@@H]23)CCC[C@]2(C)c3cc(N)ccc3CC[C@@H]12` [P4B, (1S,4aS,10aR)-N-[(1S,4aS,10aR)-6-(2-Aminoacetamido)-1,4a-dimethyl-1,2,3,4,4a,9,10,10a-octahydrophenanthrene-1-carbonyl]-6-amino-1,4a-dimethyl-1,2,3,4,4a,9,10,10a-octahydrophenanthrene-1-carboxamide] was tested. Which EC50 [1] did it give?
Answer: The EC50 was 0.125 nM.

Question: What about the maximal fold induction [1] of the same compound?
Answer: The maximal fold induction was 10.4.

Question: `C[C@]1(C(=O)NC(=O)[C@@]2(C)CCC[C@]3(C)c4cc(NC(=O)[C@@H](N)CO)ccc4CC[C@@H]23)CCC[C@]2(C)c3cc(N)ccc3CC[C@@H]12` [P5B, (1S,4aS,10aR)-6-Amino-N-((1S,4aS,10aR)-6-((S)-2-amino-3-hydroxypropanamido)-1,4a-dimethyl-1,2,3,4,4a,9,10,10a-octahydrophenanthrene-1-carbonyl)-1,4a-dimethyl-1,2,3,4,4a,9,10,10a-octahydrophenanthrene-1-carboxamide] was tested. Which EC50 [1] did it give?
Answer: The EC50 was 0.174 nM.

Question: What about the maximal fold induction [1] of the same compound?
Answer: Its maximal fold induction is 13.8.

Question: Which results are given for `C[C@]1(C(=O)NC(=O)[C@@]2(C)CCC[C@]3(C)c4cc(NC(=O)[C@@H](N)CCCCN)ccc4CC[C@@H]23)CCC[C@]2(C)c3cc(N)ccc3CC[C@@H]12` [P6B, (1S,4aS,10aR)-6-Amino-N-((1S,4aS,10aR)-6-((S)-2,6-diaminohexanamido)-1,4a-dimethyl-1,2,3,4,4a,9,10,10a-octahydrophenanthrene-1-carbonyl)-1,4a-dimethyl-1,2,3,4,4a,9,10,10a-octahydrophenanthrene-1-carboxamide]?
Answer: EC50 [1]: 3.34 nM; maximal fold induction [1]: 10.9

Question: Which EC50 [1] does the source give for `C[C@]1(C(=O)NC(=O)[C@@]2(C)CCC[C@]3(C)c4cc(NC(=O)[C@@H](N)CC(=O)O)ccc4CC[C@@H]23)CCC[C@]2(C)c3cc(N)ccc3CC[C@@H]12` [P7B, (S)-3-Amino-4-((4bS,8S,8aR)-8-((1S,4aS,10aR)-6-amino-1,4a-dimethyl-1,2,3,4,4a,9,10,10a-octahydrophenanthrene-1-carbonylcarbamoyl)-4b,8-dimethyl-4b,5,6,7,8,8a,9,10-octahydrophenanthren-3-ylamino)-4-oxobutanoic acid] here?
Answer: The EC50 was 0.253 nM.

Question: What about the maximal fold induction [1] of the same compound?
Answer: The maximal fold induction was 12.5.

Question: Which results are given for `C[C@]1(C(=O)NC(=O)[C@@]2(C)CCC[C@]3(C)c4cc(NC(=O)[C@@H](N)CCC(=O)O)ccc4CC[C@@H]23)CCC[C@]2(C)c3cc(N)ccc3CC[C@@H]12` [P8B, (S)-4-Amino-5-((4bS,8S,8aR)-8-((1S,4aS,10aR)-6-Amino-1,4a-dimethyl-1,2,3,4,4a,9,10,10a-octahydrophenanthrene-1-carbonylcarbamoyl)-4b,8-dimethyl-4b,5,6,7,8,8a,9,10-octahydrophenanthren-3-ylamino)-5-oxopentanoic acid]?
Answer: EC50 [1]: 3.51 nM; maximal fold induction [1]: 10.8

Question: What does the source list for `C[C@]1(C(=O)NC(=O)[C@@]2(C)CCC[C@]3(C)c4cc(NC(=O)[C@@H](N)Cc5cnc[nH]5)ccc4CC[C@@H]23)CCC[C@]2(C)c3cc(N)ccc3CC[C@@H]12` [P9B, (1S,4aS,10aR)-6-amino-N-((1S,4aS,10aR)-6-((S)-2-amino-3-(1H-imidazol-4-yl)propanamido)-1,4a-dimethyl-1,2,3,4,4a,9,10,10a-octahydrophenanthrene-1-carbonyl)-1,4a-dimethyl-1,2,3,4,4a,9,10,10a-octahydrophenanthrene-1-carboxamide]?
Answer: EC50 [1]: 0.234 nM; maximal fold induction [1]: 12.8

Question: With `C[C@]1(C(=O)NC(=O)[C@@]2(C)CCC[C@]3(C)c4cc(NC(=O)[C@@H](N)CCC(=O)O)ccc4CC[C@@H]23)CCC[C@]2(C)c3cc(NC(=O)CN)ccc3CC[C@@H]12` [P10B, (S)-4-Amino-5-((4bS,8S,8aR)-8-((1S,4aS,10aR)-6-(2-aminoacetamido)-1,4a-dimethyl-1,2,3,4,4a,9,10,10a-octahydrophenanthrene-1-carbonylcarbamoyl)-4b,8-dimethyl-4b,5,6,7,8,8a,9,10-octahydrophenanthren-3-ylamino)-5-oxopentanoic acid] as the compound, how does the EC50 [1] read?
Answer: Its EC50 is 0.222 nM.

Question: And the maximal fold induction [1]?
Answer: Its maximal fold induction is 11.1.

Question: `C[C@]1(C(=O)NC(=O)[C@@]2(C)CCC[C@]3(C)c4cc(NC(=O)[C@@H](N)CCC(=O)O)ccc4CC[C@@H]23)CCC[C@]2(C)c3cc(NC(=O)[C@@H](N)CCC(=O)O)ccc3CC[C@@H]12` [P11B, (4S,4'S)-5,5′-(4bS,4b'S,8S,8aR,8'S,8a′R)-8,8′-(Azanediylbis(oxomethylene))bis(4b,8-dimethyl-4b,5,6,7,8,8a,9,10-octahydrophenanthrene-8,3-diyl)bis(azanediyl)bis(4-amino-5-oxopentanoic acid)] was tested. Which EC50 [1] did it give?
Answer: The EC50 was 0.112 nM.

Question: And the maximal fold induction [1]?
Answer: The maximal fold induction was 10.7.

Question: For `C[C@H](NC(=O)[C@@H](N)CCC(=O)O)C(=O)Nc1ccc2c(c1)[C@@]1(C)CCC[C@](C)(C(=O)NC(=O)[C@@]3(C)CCC[C@]4(C)c5cc(N)ccc5CC[C@@H]34)[C@@H]1CC2` [P12B, (S)-4-Amino-5-((S)-1-((4bS,8S,8aR)-8-((1S,4aS,10aR)-6-amino-1,4a-dimethyl-1,2,3,4,4a,9,10,10a-octahydrophenanthrene-1-carbonylcarbamoyl)-4b,8-dimethyl-4b,5,6,7,8,8a,9,10-octahydrophenanthren-3-ylamino)-1-oxopropan-2-ylamino)-5-oxopentanoic acid], which EC50 [1] is on record?
Answer: Its EC50 is 0.296 nM.

Question: And the maximal fold induction [1]?
Answer: Its maximal fold induction is 11.4.

Question: How did the “reduction of S. aureus kidney burden” value ([2]; 110 mg/kg s.c. twice daily, days 1 to 3 post infection, day 4) turn out when `CN[C@H](CC(C)C)C(=O)N[C@H]1C(=O)N[C@@H](CC(N)=O)C(=O)N[C@H]2C(=O)N[C@H]3C(=O)N[C@H](C(=O)N[C@H](C(=O)O)c4cc(O)cc(O)c4-c4cc3ccc4O)[C@H](O)c3ccc(c(Cl)c3)Oc3cc2cc(c3O[C@@H]2O[C@H](CO)[C@@H](O)[C@H](O)[C@H]2O[C@H]2C[C@](C)(N)[C@H](O)[C@H](C)O2)Oc2ccc(cc2Cl)[C@H]1O` [vancomycin] was run?
Answer: The value was “approximately 2 logs”.

Question: What about the “mice with S. aureus levels below the LOD (in words)” value ([2]; vancomycin alone, 110 mg/kg s.c. twice daily) of the same compound?
Answer: The value was “none of the mice had levels of S. aureus reduced below the limit of detection”.

Question: What about the “# of mice with S. aureus below the limit of detection” value [2, 3] of the same compound?
Answer: The value was 0/6.

Question: And the Average cfu/kidney pair [2, 3]?
Answer: Its Average cfu/kidney pair is 2.07E+06 cfu/kidney pair.
